Laboratory results reported in patent US20230381142A1, “ANTILEISHMANIAL COMPOUNDS, COMPOSITIONS AND USE THEREOF” (TRUSTEES OF BOSTON UNIVERSITY, priority 2022, published 2023).
pEC50: −log10 of the molar value. Read-outs that look alike come from different tables or passages of the source.

Tests used:
[1] = GSK inMac assay, host cell toxicity readout (LD MAC); format: cell-based, human; details: human
Description: (§1) The intramacrophage Leishmania donovani activity assay (LD AMMAC) at GlaxoSmithKline was performed as described.
(§2) Given the literature precedents described above and the apparent narrow tolerance for R^3 substitutions observed in the primary screen compounds, a thorough and methodical assessment was undertaken of tolerated groups at the three points of diversity (R^1/R^2/R^3) for the core. At this stage of the project, all analogues were assessed using a battery of assays performed in-house at GlaxoSmithKline. For antileishmanial activity, GSK's inMac assay was utilized. This assay provides two readouts of compound potency: average number of intracellular amastigotes per infected cell (AMMAC) EC50, percentage of infected cells per well (INFCELL) EC50, as well as a toxicity output derived from the number of host cells (MAC EC50). In addition, compounds were assessed for toxicity against HepG2 cells (HEPG2 EC50). Here, AMMAC EC50 values were focused on for relative potency assessments. […] It should be noted that for all compounds assessed in this project, the measured toxicity against THP-1 macrophages either equaled or exceeded that of HepG2 hepatocytes, therefore the MAC SI is used here as the more conservative estimate of therapeutic index.

[2] = test system: L. donovani intracellular amastigotes infecting THP-1 macrophages; assay: GSK intramacrophage L. donovani assay (LD AMMAC, inMac; Assay Conditions C); format: cell-based; details: Leishmania donovani; for pEC50: THP-1 cells, values marked c, read-out: L. donovani amastigotes EC50 (THP-1 cells); for EC50: values marked c: THP-1 cells, read-out: L. donovani amastigotes EC50 (μM, THP-1 or B10R cells)
Description: Assay Conditions C: The intramacrophage Leishmania donovani activity assay was performed as described in Antimicrob Agents Chemother (2013) 57(7):2913-22.
as §1, §2

[3] = footnote c, read-out: THP-1 Host Cell CC50

SMILES | CC50 [1, 3] | pEC50 [2] | CC50 ([1]; host THP-1 cells) | EC50 [2]
CC(C)Cc1n[nH]c2c1C(c1ccc(F)cc1)N(c1ccc(C#N)cc1)C2=O (centres unmarked) [BUCMD00807] | 25.1 µM | 4.90 | – | –
COc1ccc(N2C(=O)c3[nH]nc(CC(C)C)c3C2c2ccc(F)cc2)cn1 (centres unmarked) [BUCMD00808] | > 50 µM | 5.00 | – | –
CCn1nc(CC(C)C)c2c1C(=O)N(c1ccc(OC)cc1)C2c1ccc(F)cc1 (centres unmarked) [BUCMD00809] | 39.8 µM | 5.40 | – | –
CCn1nc2c(c1CC(C)C)C(c1ccc(F)cc1)N(c1ccc(OC)cc1)C2=O (centres unmarked) [BUCMD00810] | > 50 µM | 4.70 | – | –
COc1ccc(N2C(=O)c3[nH]nc(-c4ccc(OCc5ccccc5)cc4)c3C2c2ccc(F)cc2)cc1 (centres unmarked) [BUCMD00811] | 15.8 µM | 5.00 | – | –
COc1ccc(N2C(=O)c3[nH]nc(CC4CCCCC4)c3C2c2ccc(F)cc2)cc1 (centres unmarked) [BUCMD00812] | 20 µM | 5.49 | – | –
COCn1nc(CC(C)C)c2c1C(=O)N(c1ccc(OC)cc1)C2c1ccc(F)cc1 (centres unmarked) [BUCMD00813] | 31.6 µM | 4.90 | – | –
COCn1nc2c(c1CC(C)C)C(c1ccc(F)cc1)N(c1ccc(OC)cc1)C2=O (centres unmarked) [BUCMD00814] | > 50 µM | 4.90 | – | –
CC(C)Cc1n[nH]c2c1C(c1ccc(F)cc1)N(c1ccc(-n3ccnc3)cc1)C2=O (centres unmarked) [BUCMD00815] | > 50 µM | 5.60 | – | –
CC(C)Cc1n[nH]c2c1C(c1ccc(F)cc1)N(c1ccc(C(C)(C)C)cc1)C2=O (centres unmarked) [BUCMD00816] | > 50 µM | 5.00 | – | –
CC(C)Cc1n[nH]c2c1C(c1ccc(F)cc1)N(C(CO)CO)C2=O (centres unmarked) [BUCMD00817] | > 50 µM | < 4.30 | – | –
COc1ccc(N2C(=O)c3[nH]nc(CC(C)C)c3C2c2cccc(C(F)(F)F)c2)cc1 (centres unmarked) [CMLD007432] | 15.9 µM | 5.20 | – | –
CC(C)Cc1nn(-c2ccc(OC(F)(F)F)cc2)c2c1C(c1ccccc1)NC2=O (centres unmarked) [CMLD009657] | – | – | ≥ 50.1 µM | 12.6 µM
CC(C)Cc1n[nH]c2c1C(c1ccc(F)cc1)N(Cc1ccc(C(F)(F)F)cn1)C2=O (centres unmarked) [CMLD010848] | > 50 µM | 4.40 | – | –
COc1ccc(N2C(=O)c3[nH]nc(CCc4ccccc4)c3C2c2ccc(F)cc2)cc1 (centres unmarked) [CMLD010849] | 25.1 µM | 5.20 | – | –
COc1cccc(N2C(=O)c3[nH]nc(CC(C)C)c3C2c2ccsc2)c1 (centres unmarked) [CMLD010880] | 39.8 µM | 4.70 | – | –
COc1cccc(N2C(=O)c3[nH]nc(CC(C)C)c3C2c2ccccc2Cl)c1 (centres unmarked) [CMLD010881] | 15.8 µM | 5.10 | – | –
COc1ccc(N2C(=O)c3[nH]nc(CC(C)C)c3C2C2CCN(Cc3ccccc3)CC2)cc1 (centres unmarked) [CMLD010882] | 20 µM | 4.80 | – | –
COc1cncc(N2C(=O)c3[nH]nc(CC(C)C)c3C2c2ccc(F)cc2)c1 (centres unmarked) [CMLD010883] | > 50 µM | 4.50 | – | –
CC(C)Cc1n[nH]c2c1C(c1ccc(F)cc1)N(c1ccc(OC(F)(F)F)cc1)C2=O (centres unmarked) [CMLD010885] | 7.9 µM | 5.49 | – | –
COc1ccc(N2C(=O)c3[nH]nc(CC(C)C)c3C2c2cncc(OC)c2)cc1 (centres unmarked) [CMLD010886] | 20 µM | 5.00 | – | –
COc1ccc(N2C(=O)c3[nH]nc(CC(C)C)c3C2c2ccncn2)cc1 (centres unmarked) [CMLD010887] | > 50 µM | < 4.30 | – | –
COc1ccc(N2C(=O)c3[nH]nc(CC(C)C)c3C2c2ccc(Br)cc2)cc1 (centres unmarked) [CMLD010889] | 15.9 µM | 5.20 | – | –
COc1ccc(N2C(=O)c3[nH]nc(CC(C)C)c3C2c2cccc(F)c2)cc1 (centres unmarked) [CMLD010890] | 12.6 µM | 5.30 | – | –
COc1ccc(N2C(=O)c3[nH]nc(CC(C)C)c3C2c2cccc(Br)c2)cc1 (centres unmarked) [CMLD010891] | 25.1 µM | 5.10 | – | –
COc1ccc(N2C(=O)c3[nH]nc(CC(C)C)c3C2C2CCCCC2)cc1 (centres unmarked) [CMLD010892] | 25.1 µM | 5.10 | – | –

SMILES | CC50 [1, 3] | pEC50 [2] | CC50 ([1]; host THP-1 cells) | EC50 [2]
COc1ccc(N2C(=O)c3[nH]nc(CC(C)C)c3C2c2ccccc2Br)cc1 (centres unmarked) [CMLD010894] | 25.1 µM | 6.30 | – | –
COc1cccc(N2C(=O)c3[nH]nc(CC(C)C)c3C2c2ccc(F)cc2)c1 (centres unmarked) [CMLD010895] | 31.6 µM | 4.90 | – | –
COc1cc(N2C(=O)c3[nH]nc(CC(C)C)c3C2c2ccc(F)cc2)cc(OC)c1OC (centres unmarked) [CMLD010896] | 3.2 µM | 5.40 | – | –
CC(C)Cc1n[nH]c2c1C(c1ccc(F)cc1)N(c1ccc(Br)cc1)C2=O (centres unmarked) [CMLD010897] | 15.9 µM | 5.89 | – | –
COc1ccc(N2C(=O)c3[nH]nc(CC(C)C)c3C2c2cccc(C(F)(F)F)c2)cn1 (centres unmarked) [CMLD010898] | 20 µM | 5.70 | – | –
CCc1ccc(N2C(=O)c3[nH]nc(CC(C)C)c3C2c2ccc(F)cc2)cc1 (centres unmarked) [CMLD010899] | 20 µM | 5.40 | – | –
CCOc1ccc(N2C(=O)c3[nH]nc(CC(C)C)c3C2c2ccc(F)cc2)cc1 (centres unmarked) [CMLD010900] | 20 µM | 5.80 | – | –
COc1ccc(N2C(=O)c3[nH]nc(CC(C)C)c3C2C2CCCCC2)cn1 (centres unmarked) [CMLD010903] | 31.6 µM | 4.70 | – | –
CC(C)Cc1n[nH]c2c1C(c1cccc(C(F)(F)F)c1)N(c1ccc(-n3ccnc3)cc1)C2=O (centres unmarked) [CMLD010924] | – | – | 39.8 µM | ≥ 50.1 µM
CC(C)Cc1n[nH]c2c1C(c1cccc(C(F)(F)F)c1)N(c1ccc(N(C)C)cc1)C2=O (centres unmarked) [CMLD010925] | 20 µM | 5.10 | – | –
Cc1cc(F)ccc1C1c2c(CC(C)C)n[nH]c2C(=O)N1c1ccc(-n2ccnc2)cc1 (centres unmarked) [CMLD010926] | 25.1 µM | 5.89 | – | –
COc1ccc(N2C(=O)c3[nH]nc(CC(C)C)c3[C@@H]2c2ccc(F)cc2C)cc1 [CMLD010949] | 39.8 µM | 6.30 | – | –
COc1ccc(N2C(=O)c3[nH]nc(CC(C)C)c3[C@H]2c2ccc(F)cc2C)cc1 [CMLD010950] | 31.6 µM | 5.20 | – | –
COc1ccc(N2C(=O)c3[nH]nc(CC(C)C)c3[C@@H]2c2ccccc2Br)cn1 [CMLD010976] | 20 µM | 6.00 | – | –
COc1ccc(N2C(=O)c3[nH]nc(CC(C)C)c3C2C2CCCC2)cc1 (centres unmarked) [CMLD010978] | 20 µM | 4.90 | – | –
COc1ccc(N2C(=O)c3[nH]nc(-c4ccc(CC(C)C)cc4)c3C2c2ccc(F)cc2)cc1 (centres unmarked) [CMLD010979] | 7.9 µM | 5.40 | – | –
COc1ccc(N2C(=O)c3[nH]nc(-c4ccc5c(c4)CCC5)c3C2c2ccc(F)cc2)cc1 (centres unmarked) [CMLD010980] | 7.9 µM | 5.30 | – | –
COc1ccc(N2C(=O)c3[nH]nc(CCC=C(C)C)c3C2c2ccc(F)cc2)cc1 (centres unmarked) [CMLD010981] | 20 µM | 5.20 | – | –
CCCn1nc(CC(C)C)c2c1C(=O)N(c1ccc(OC)cc1)C2c1ccc(F)cc1 (centres unmarked) [CMLD010982] | 25.1 µM | 5.30 | – | –
C=CCn1nc2c(c1CC(C)C)C(c1ccc(F)cc1)N(c1ccc(OC)cc1)C2=O (centres unmarked) [CMLD010984] | – | – | 31.6 µM | 6.3 µM
C=CCn1nc(CC(C)C)c2c1C(=O)N(c1ccc(OC)cc1)C2c1ccc(F)cc1 (centres unmarked) [CMLD010985] | 31.6 µM | 5.60 | – | –
COc1ccc(N2C(=O)c3nn(C)c(CC(C)C)c3C2c2ccc(F)cc2)cc1 (centres unmarked) [CMLD010988] | – | – | 25.1 µM | 7.9 µM
COc1ccc(N2C(=O)c3c(c(CC(C)C)nn3C)C2c2ccc(F)cc2)cc1 (centres unmarked) [CMLD010989] | 25.1 µM | 5.80 | – | –
CCCn1nc2c(c1CC(C)C)C(c1ccc(F)cc1)N(c1ccc(OC)cc1)C2=O (centres unmarked) [CMLD010990] | – | – | 25.1 µM | 7.9 µM
COc1ccc(N2C(=O)c3[nH]nc(CC(C)C)c3C2c2cncs2)cc1 (centres unmarked) [CMLD010991] | > 50 µM | 4.80 | – | –
COc1ccc(N2C(=O)c3[nH]nc(CC(C)C)c3C2c2ccc(F)cc2)c(OC)c1 (centres unmarked) [CMLD010992] | 31.6 µM | 4.70 | – | –
